From patent publication US11292773B2, “Small molecule inhibitors of BCL-2-associated death promoter (BAD) phosphorylation” (NATIONAL UNIVERSITY OF SINGAPORE, priority 2017, dated 2022) come the findings set out here.

For this assay, the system named is MCF7, BT474, Caov-3, Ishikawa, AsPC-1 and DLD-1 cells. The assay is described as follows: NPB exposure with or without siRNA-mediated depletion of BAD (western blot, ApoTox-Glo). It is filed as cell-based, human. The settings on record: 5 μM NPB. The protocol: (A) WB analysis was used to assess the levels of pBAD (Ser99) activity and BAD protein in MCF7, BT474, Caov-3, Ishikawa, AsPC-1, and DLD-1 cells after treatment with 5 μM NPB. Depletion of BAD expression was achieved using transient-transfection of small interfering (si)-RNA directed to the BAD transcript. Soluble whole cell extracts were run on an SDS-PAGE and immunoblotted as described in materials and methods. β-ACTIN was used as input control. Effects of NPB (5 μM) in MCF7, BT474, Caov-3, Ishikawa, AsPC-1, and DLD-1 cells. (B) Cell viability and (C) caspase 3/7 activities were evaluated using the ApoTox-GIo™ Triplex Assay Kit. All assays performed as described in methodology. Statistical significance was assessed by an unpaired two-tailed Student's t-test (P<0.05 was considered as significant) using GraphPad Prism5. The column represents mean of triplicate determinations; bars, ±SD. **P<0.001, *P<0.05. Note RFU, relative fluorescence unit; RLU, relative luminescence unit.
To confirm the functional specificity of NPB directed to the BAD protein, we further examined the effect of NPB exposure after siRNA-mediated depletion of BAD expression in 6 carcinoma cell lines (MCF7, BT474, Caov-3, Ishikawa, AsPC-1 and DLD-1). […] As described above, NPB treatment of the control transfected carcinoma cell lines decreased BAD phosphorylation (Ser99) compared to vehicle-treated cells. Concomitantly, exposure of the same carcinoma cell lines to NPB decreased cell viability and increased caspase 3/7 activity compared to vehicle-exposed cells.

[1] abbreviates: control transfected carcinoma cell lines, vs vehicle.

For the compound `O=C(NC1CCCC1)c1cccc(C(c2ccccc2O)N2CCN(c3cccc(Cl)c3Cl)CC2)c1` (stereo not shown) [NPB, N-cyclopentyl-3-((4-(2,3-dichlorophenyl)piperazin-1-yl)(2-hydroxyphenyl)methyl) benzamide], for the setting “carcinoma cell lines with depleted expression of BAD”, the “cell viability and caspase3/7 activity” value is “did not affect”. Under setting [1], the “BAD phosphorylation (Ser99)” value is reported as “decreased”, the “caspase 3/7 activity” value was “increased” and the cell viability entry is listed as “decreased”.
